We go through 4 compounds from ChEMBL document CHEMBL1139715, “Synthesis of 3,6-bis[H-Tyr/H-Dmt-NH(CH2)m,n]-2(1H)pyrazinone derivatives: function of alkyl chain length on opioid activity” (Bioorg Med Chem Lett, 2006).

The target of assay [1] is Delta-type opioid receptor (Rattus norvegicus, UniProt P33533). Put plainly: Displacement of [3H]deltorphin II from delta opioid receptor in rat synaptosomes P2 fraction. The format is subcellular, Brain. In general terms: In a radioligand displacement assay an active substance lowers the binding of a labelled ligand.
Sequence of Delta-type opioid receptor (Rattus norvegicus, UniProt P33533) (P33533 whole entry): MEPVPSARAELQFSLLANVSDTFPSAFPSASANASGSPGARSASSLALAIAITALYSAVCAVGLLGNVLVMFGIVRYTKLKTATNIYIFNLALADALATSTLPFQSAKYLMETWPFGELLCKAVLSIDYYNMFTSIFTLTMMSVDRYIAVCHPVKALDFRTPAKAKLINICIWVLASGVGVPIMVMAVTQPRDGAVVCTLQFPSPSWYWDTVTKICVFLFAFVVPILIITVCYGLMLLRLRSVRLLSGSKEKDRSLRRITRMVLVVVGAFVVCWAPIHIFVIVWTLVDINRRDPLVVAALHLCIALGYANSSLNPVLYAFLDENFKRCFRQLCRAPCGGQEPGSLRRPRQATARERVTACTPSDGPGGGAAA
Assay [2] has as its target Mu-type opioid receptor (Rattus norvegicus, UniProt P33535). Put plainly: Displacement of [3H]DAMGO from mu opioid receptor in rat synaptosomes P2 fraction. It is filed as subcellular, Brain.
The target of assay [3] is Opioid receptors; mu & delta (Rattus norvegicus) (UniProt P33533+P33535). Put plainly: Selectivity for rat mu opioid receptor over rat delta opioid receptor. It is filed as protein assay.
Sequence of Opioid receptors; mu & delta (Rattus norvegicus) (P33533 whole entry, looked up): as the sequence (P33533 whole entry) above
Sequence of Opioid receptors; mu & delta (Rattus norvegicus) (P33535 whole entry, looked up): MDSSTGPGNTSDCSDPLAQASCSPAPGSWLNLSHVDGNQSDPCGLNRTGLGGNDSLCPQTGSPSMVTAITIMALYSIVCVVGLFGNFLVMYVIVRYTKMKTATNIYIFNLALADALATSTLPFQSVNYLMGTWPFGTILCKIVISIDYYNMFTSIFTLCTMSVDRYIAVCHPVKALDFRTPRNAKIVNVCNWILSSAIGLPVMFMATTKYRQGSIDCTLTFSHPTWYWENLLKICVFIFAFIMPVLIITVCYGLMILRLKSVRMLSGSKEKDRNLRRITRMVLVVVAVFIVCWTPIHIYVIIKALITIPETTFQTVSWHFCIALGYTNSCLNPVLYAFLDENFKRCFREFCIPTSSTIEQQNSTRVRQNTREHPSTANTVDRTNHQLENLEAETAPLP
Assay [4] addresses Delta-type opioid receptor (Mus musculus, UniProt P32300). Put plainly: (§1) Activity at delta opioid receptor assessed as inhibition of muscle contraction in mouse vas deferens assay. It is filed as functional, tissue-based.
For assay [5], the target named is Delta-type opioid receptor (Mus musculus) (UniProt P32300). Described as §1. It is filed as functional, tissue-based. Particulars: for inhibition: concentration not given here; for Activity: filed as partial agonist.
Sequence of Delta-type opioid receptor (Mus musculus) (P32300 whole entry): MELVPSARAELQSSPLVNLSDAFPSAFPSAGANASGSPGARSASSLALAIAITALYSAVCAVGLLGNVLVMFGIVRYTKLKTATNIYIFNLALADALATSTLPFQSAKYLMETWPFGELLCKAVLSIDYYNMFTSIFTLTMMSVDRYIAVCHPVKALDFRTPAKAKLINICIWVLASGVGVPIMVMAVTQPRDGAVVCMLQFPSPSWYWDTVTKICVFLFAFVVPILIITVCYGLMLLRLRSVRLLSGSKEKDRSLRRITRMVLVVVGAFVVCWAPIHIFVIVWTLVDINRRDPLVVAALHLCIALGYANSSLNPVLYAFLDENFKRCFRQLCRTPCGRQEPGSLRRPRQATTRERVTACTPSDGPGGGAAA
The target in assay [6] is Mu-type opioid receptor (Cavia porcellus, UniProt P97266). Put plainly: Activity at mu opioid receptor by guinea pig ileum assay. The format is functional, tissue-based.
Sequence of Mu-type opioid receptor (Cavia porcellus, UniProt P97266) (P97266 whole entry): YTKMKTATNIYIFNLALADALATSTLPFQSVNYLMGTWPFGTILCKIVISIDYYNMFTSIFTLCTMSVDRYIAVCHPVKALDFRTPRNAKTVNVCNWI

Sequence of Mu-type opioid receptor (Rattus norvegicus, UniProt P33535) (P33535 whole entry): as the sequence (P33535 whole entry, looked up) above
Sequence of Delta-type opioid receptor (Mus musculus, UniProt P32300) (P32300 whole entry): as the sequence (P32300 whole entry) above

With `Cc1nc(CCCCNC(=O)[C@@H](N)Cc2ccc(O)cc2)c(=O)[nH]c1CCCNC(=O)[C@@H](N)Cc1ccc(O)cc1`, the values for the Ki (in assay [1]; on Mu-type opioid receptor [2]) were 924 nM and 7.58 nM, respectively. Besides, the Ratio Ki in assay [3] worked out at 220.

Consider `Cc1cc(O)cc(C)c1C[C@H](N)C(=O)NCCCCc1nc(C)c(CCCNC(=O)[C@@H](N)Cc2c(C)cc(O)cc2C)[nH]c1=O`, for which the values for the IC50 (in assay [4]; on Mu-type opioid receptor [6]) were 25.8 nM and 1.79 nM, respectively. Moreover, in assay [5], the inhibition (in general, how much of the control response was suppressed) was 60%. Further, the Activity result in assay [5] was “Partial agonist”. Moreover, the Ki (in general, a measure of affinity in units of concentration, obtained from inhibition or displacement) in assay [1] stood at 31.9 nM; on Mu-type opioid receptor [2], 0.021 nM. Moreover, the Ratio Ki in assay [3] was 1520.

For the compound `Cc1nc(CCCNC(=O)[C@@H](N)Cc2ccc(O)cc2)c(=O)[nH]c1CCCCNC(=O)[C@@H](N)Cc1ccc(O)cc1`, the inhibitory constant (Ki) in assay [1] worked out at 2770 nM; at Mu-type opioid receptor [2] it was 27.4 nM. Further, the Ratio Ki in assay [3] stood at 65.

Turning to `Cc1cc(O)cc(C)c1C[C@H](N)C(=O)NCCCCc1[nH]c(=O)c(CCCNC(=O)[C@@H](N)Cc2c(C)cc(O)cc2C)nc1C`, the IC50 (usually the concentration that gives 50% inhibition) in assay [4] is > 10000 nM; at Mu-type opioid receptor [6] it was 4.93 nM. Moreover, the inhibition in assay [5] was 44%. In addition, the Activity entry in assay [5] was “Partial agonist”. The Ki in assay [1] was 18.8 nM; at Mu-type opioid receptor [2], 0.051 nM. In addition, in assay [3], the Ratio Ki is 369.
